Each structure is given as a SMILES string. Read-outs that look alike come from different tables or passages of the source.

Common to all, as to assay type: biochemical
One assay deals with T1, procaspase-3 (Homo sapiens, UniProt P42574).
T1 construct: His6 (C); made in house; host or cells: E. coli BL21(DE3)RP, pET-23b
T1 sequence (P42574 1-277): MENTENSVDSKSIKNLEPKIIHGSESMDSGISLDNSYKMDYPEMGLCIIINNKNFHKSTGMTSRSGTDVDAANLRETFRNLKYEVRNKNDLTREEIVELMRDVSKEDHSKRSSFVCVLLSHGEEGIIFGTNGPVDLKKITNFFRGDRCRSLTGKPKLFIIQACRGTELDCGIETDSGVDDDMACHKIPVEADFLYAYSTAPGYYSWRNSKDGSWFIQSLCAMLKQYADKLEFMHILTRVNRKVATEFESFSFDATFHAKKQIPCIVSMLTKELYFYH
Put plainly: Executioner procaspase-3 activation assay (Ac-DEVD-AFC fluorogenic substrate). On the procedure: The executioner procaspase-3, -6 and -7 activation assay protocol involves incubating the target protein at the physiologically-relevant concentration of 100 nM with activating compounds (ranging from 100 nM to 100 uM) in a total volume of 50 μL consisting of a reaction buffer of 50 mM HEPES, pH 7.4, 50 mM KCl, 1 mM DTT and 0.01% Triton-X100 (to reduce false positive hits due to compound aggregation). […] All components of the assay including protein, substrate and inhibitor are stored as frozen aliquots and thawed immediately prior to the assay.

Another assay deals with T2, procaspase-6 (Homo sapiens, UniProt P55212).
T2 sequence (P55212 1-293): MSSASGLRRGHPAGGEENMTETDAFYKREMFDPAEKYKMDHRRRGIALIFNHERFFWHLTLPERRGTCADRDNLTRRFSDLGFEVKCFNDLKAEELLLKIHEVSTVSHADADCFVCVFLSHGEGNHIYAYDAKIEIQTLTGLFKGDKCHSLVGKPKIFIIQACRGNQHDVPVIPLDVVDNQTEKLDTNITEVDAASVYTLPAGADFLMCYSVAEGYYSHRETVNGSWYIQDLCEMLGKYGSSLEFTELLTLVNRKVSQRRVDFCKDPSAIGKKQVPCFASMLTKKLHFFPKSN
Briefly: Executioner procaspase-6 activation assay (Ac-VEID-AFC fluorogenic substrate). To be noted: incubation with compound for 5 h at 37° C.; 100 nM procaspase. On the procedure: (§1) The executioner procaspase-3, -6 and -7 activation assay protocol involves incubating the target protein at the physiologically-relevant concentration of 100 nM with activating compounds (ranging from 100 nM to 100 uM) in a total volume of 50 μL consisting of a reaction buffer of 50 mM HEPES, pH 7.4, 50 mM KCl, 1 mM DTT and 0.01% Triton-X100 (to reduce false positive hits due to compound aggregation). The procaspase/small molecule incubations are then agitated at 37° C. and assayed at various time points by addition of the fluorogenic peptide substrate 7-Amino-4-trifluoromethylcoumarin-DEVD (Ac-DEVD-AFC) (procaspases-3, -7) or Ac-VEID-AFC (procaspase-6) to a final concentration of 25 μM and analyzed by a kinetic 30 minute assay (excitation 365 nm and emission 495 nm). The final concentration of DMSO in each well is 3% and has no effect on enzyme stability or activity. […] All components of the assay including protein, substrate and inhibitor are stored as frozen aliquots and thawed immediately prior to the assay.
(§2) Tables 1 and 2. Procaspase activation as a result of incubation with compound for 5 h at 37° C. (+++ EC50˜0.5-10 μM; ++ EC50˜10-50 μM; + EC50˜50-200 μM; -no activation observed; ND not determined).

Another assay addresses T3, procaspase-7 (Homo sapiens, UniProt P55210).
T3 construct: His6 (C); made in house; host or cells: E. coli BL21(DE3)RP, pET-21b
T3 sequence (P55210 1-303): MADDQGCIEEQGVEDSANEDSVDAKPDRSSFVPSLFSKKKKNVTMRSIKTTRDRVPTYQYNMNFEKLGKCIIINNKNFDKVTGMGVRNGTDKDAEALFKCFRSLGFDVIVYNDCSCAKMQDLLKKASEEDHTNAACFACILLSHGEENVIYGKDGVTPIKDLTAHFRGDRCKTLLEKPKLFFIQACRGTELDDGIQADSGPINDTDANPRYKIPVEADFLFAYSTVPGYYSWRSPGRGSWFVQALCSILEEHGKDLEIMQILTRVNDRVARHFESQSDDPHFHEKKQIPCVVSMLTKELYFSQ
Put plainly: Executioner procaspase-7 activation assay (Ac-DEVD-AFC fluorogenic substrate). To be noted: incubation with compound for 5 h at 37° C.; 100 nM procaspase. On the procedure: as §1, §2

[1] abbreviates: incubation with compound for 5 h at 37° C., 100 nM procaspase, read-out: Procaspase Activation 3.

With `COc1ccc(-c2cccc(NC(=O)c3cc4cccc(O)c4oc3=O)c2)cc1` [compound 44, 8-Hydroxy-2-oxo-2H-chromene-3-carboxylic acid (4′-Methoxy-biphenyl-3-yl)-amide], the EC50 was over 100 µM at procaspase-3 (setting [1]), over 100 µM at procaspase-6 and 0.5 to 10 µM on procaspase-7.

In the case of `COc1cccc2cc(C(=O)Nc3cccc(-c4ccccc4OC(F)(F)F)c3)c(=O)oc12` [compound 72, 8-Methoxy-2-oxo-2H-chromene-3-carboxylic acid (2′-trifluoromethoxy-biphenyl-3-yl)-amide], the EC50 at procaspase-3 (setting [1]), on procaspase-6 and on procaspase-7 was over 100 µM each time.

Turning to `CN(C)c1ccc(-c2cccc(NC(=O)c3cc4cccc(O)c4oc3=O)c2)cn1` [compound 137, 8-Hydroxy-2-oxo-2H-chromene-3-carboxylic acid [3-(6-dimethylamino-pyridin-3-yl)-phenyl]-amide], the EC50 at procaspase-3 (setting [1]), on procaspase-6 and at procaspase-7 was over 100 µM throughout.

`COc1ncccc1-c1cccc(NC(=O)c2cc3cccc(OC)c3oc2=O)c1` [compound 142, 8-Methoxy-2-oxo-2H-chromene-3-carboxylic acid [3-(2-methoxy-pyridin-3-yl)-phenyl]-amide]: the EC50 at procaspase-3 (setting [1]), on procaspase-6 and on procaspase-7 was over 100 µM each time.

Consider `O=C(Nc1cccc(-c2cccc3[nH]ccc23)c1)c1cc2cccc(O)c2oc1=O` [compound 167, 8-Hydroxy-2-oxo-2H-chromene-3-carboxylic acid [3-(1H-indol-4-yl)-phenyl]-amide], for which the EC50 at procaspase-3, on procaspase-6 and on procaspase-7 was over 100 µM throughout.

In the case of `O=C(Nc1cccc(-c2nc3ccccc3[nH]2)c1)c1cc2cccc(O)c2oc1=O` [compound 15, 8-Hydroxy-2-oxo-2H-chromene-3-carboxylic acid [3-(1H-benzoimidazol-2-yl)-phenyl]-amide], the EC50 on procaspase-3 (setting [1]), at procaspase-6 and on procaspase-7 was over 100 µM each time.

Take `COc1cccc2cc(C(=O)Nc3cccc(-c4ccc5c(c4)CCO5)c3)c(=O)oc12` [compound 75, 8-Methoxy-2-oxo-2H-chromene-3-carboxylic acid [3-(2,3-dihydro-benzofuran-5-yl)-phenyl]-amide]: the EC50 at procaspase-3 (setting [1]), at procaspase-6 and on procaspase-7 was over 100 µM each time.

As to `O=C(Nc1cccc(-c2ccc(Oc3ccccc3)cc2)c1)c1cc2cccc(O)c2oc1=O` [compound 59, 8-Hydroxy-2-oxo-2H-chromene-3-carboxylic acid (4′-phenoxy-biphenyl-3-yl)-amide], the EC50 at procaspase-3 (setting [1]), on procaspase-6 and at procaspase-7 was over 100 µM in each case.

As to `O=C(Nc1cccc(-c2cn[nH]c2)c1)c1cc2cccc(O)c2oc1=O` [compound 149, 8-Hydroxy-2-oxo-2H-chromene-3-carboxylic acid [3-(1H-pyrazol-4-yl)-phenyl]-amide], the EC50 on procaspase-3 (setting [1]), on procaspase-6 and at procaspase-7 was over 100 µM throughout.

Consider `COc1ncc(-c2cccc(NC(=O)c3cc4cccc(O)c4oc3=O)c2)cn1` [compound 133, 8-Hydroxy-2-oxo-2H-chromene-3-carboxylic acid [3-(2-methoxy-pyrimidin-5-yl)-phenyl]-amide], for which the EC50 on procaspase-3 (setting [1]), at procaspase-6 and on procaspase-7 was over 100 µM each time.

For the compound `O=C(Nc1cccc(-c2cncnc2)c1)c1cc2cccc(O)c2oc1=O` [compound 135, 8-Hydroxy-2-oxo-2H-chromene-3-carboxylic acid (3-pyrimidin-5-yl-phenyl)-amide], the EC50 at procaspase-3 (setting [1]), at procaspase-6 and at procaspase-7 was over 100 µM each time.

With `COc1ccc(-c2cccc(NC(=O)c3cc4cccc(OC)c4oc3=O)c2)c(OC)c1` [compound 51, 8-Methoxy-2-oxo-2H-chromene-3-carboxylic acid (2′,4′-dimethoxy-biphenyl-3-yl)-amide], the EC50 at procaspase-3 (setting [1]), at procaspase-6 and at procaspase-7 was over 100 µM each time.

As for `O=C(Nc1cccc(-c2ccc3[nH]ccc3c2)c1)c1cc2cccc(OC(F)(F)F)c2oc1=O` [compound 94, 8-Trifluoromethoxy-2-oxo-2H-chromene-3-carboxylic acid (3-(1H-Indol-5-yl)-phenyl)-amide], the EC50 on procaspase-3, on procaspase-6 and on procaspase-7 was over 100 µM in each case.

Consider `COc1cccc2cc(C(=O)Nc3cccc(-c4ccc(F)c(C#N)c4)c3)c(=O)oc12` [compound 146, 8-Methoxy-2-oxo-2H-chromene-3-carboxylic acid (3′-cyano-4′-fluoro-biphenyl-3-yl)-amide], for which the EC50 at procaspase-3 (setting [1]), on procaspase-6 and on procaspase-7 was over 100 µM each time.

As for `COc1cccc2cc(C(=O)Nc3cccc(-c4cnc5ccccc5c4)c3)c(=O)oc12` [compound 84, 8-Methoxy-2-oxo-2H-chromene-3-carboxylic acid [3-Quinolin-3-yl-phenyl]-amide], the EC50 on procaspase-3 (setting [1]), at procaspase-6 and at procaspase-7 was over 100 µM throughout.

Consider `COc1cccc2cc(C(=O)Nc3cccc(-c4ccc(N(C)C)nc4)c3)c(=O)oc12` [compound 138, 8-Methoxy-2-oxo-2H-chromene-3-carboxylic acid [3-(6-dimethylamino-pyridin-3-yl)-phenyl]-amide], for which the EC50 on procaspase-3 (setting [1]), on procaspase-6 and at procaspase-7 was over 100 µM each time.

As to `COc1ccc(-c2cccc(NC(=O)c3cc4cccc(O)c4oc3=O)c2)c(OC)c1` [compound 50, 8-Hydroxy-2-oxo-2H-chromene-3-carboxylic acid (2′,4′-dimethoxy-biphenyl-3-yl)-amide], the EC50 on procaspase-3 (setting [1]), at procaspase-6 and on procaspase-7 was over 100 µM throughout.

As to `CCOc1ncccc1-c1cccc(NC(=O)c2cc3cccc(OC)c3oc2=O)c1` [compound 42, 8-Methoxy-2-oxo-2H-chromene-3-carboxylic acid [3-(2-ethoxy-pyridin-3-yl)-phenyl]-amide], the EC50 on procaspase-3 (setting [1]), on procaspase-6 and at procaspase-7 was over 100 µM throughout.

For `COc1ncc(-c2cccc(NC(=O)c3cc4cccc(OC)c4oc3=O)c2)cn1` [compound 134, 8-Methoxy-2-oxo-2H-chromene-3-carboxylic acid [3-(2-methoxy-pyrimidin-5-yl)-phenyl]-amide], the EC50 on procaspase-3 (setting [1]), on procaspase-6 and at procaspase-7 was over 100 µM throughout.

As for `O=C(Nc1cccc(-c2ccc(Oc3ccccc3)cc2)c1)c1cc2cccc(OC(F)(F)F)c2oc1=O` [compound 61, 8-Trifluoromethoxy-2-oxo-2H-chromene-3-carboxylic acid (4′-phenoxy-biphenyl-3-yl)-amide], the EC50 on procaspase-3 (setting [1]), on procaspase-6 and at procaspase-7 was over 100 µM in each case.

For `O=C(Nc1cccc(-c2ccc3ccccc3c2)c1)c1cc2cccc(O)c2oc1=O` [compound 80, 8-Hydroxy-2-oxo-2H-chromene-3-carboxylic acid (3-Naphthalen-2-yl-phenyl)-amide], the EC50 on procaspase-3 (setting [1]), at procaspase-6 and on procaspase-7 was over 100 µM throughout.

(Values after patent publication US8642788B2, “Activators of executioner procaspases 3, 6 and 7” (The Regents of the University of California, priority 2008, dated 2014).)
